Assay results: PubChem BioAssay (NCI)
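All cell lines were grown in 96-well plates and treated with compound for 48 hours. GI50 marks 50% less growth. TGI: concentration producing complete growth inhibition.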

Key:
Test in all cases: inhibition of tumour cell growth, NCI panel, 48 h
[1] = test system: OVCAR-8 ovarian
[2] = test system: OVCAR-5 ovarian
[3] = test system: SR leukemia
[4] = test system: SF-539 CNS
[5] = test system: NCI-H23 lung
[6] = test system: MDA-MB-435
[7] = test system: NCI-H460 lung
[8] = test system: CAKI-1 renal
[9] = test system: DU-145 prostate
[10] = test system: K-562 leukemia
[11] = test system: SW-620 colon
[12] = test system: MCF7 breast
[13] = test system: RPMI-8226 leukemia
[14] = test system: A549 NSCLC
[15] = test system: UACC-257 melanoma
[16] = test system: HOP-92 NSCLC
[17] = test system: HL-60(TB) leukemia
[18] = test system: UACC-62 melanoma
[19] = test system: ACHN renal
[20] = test system: UO-31 renal
[21] = test system: HCT-15 colon
[22] = test system: 786-0 renal
[23] = test system: PC-3 prostate
[24] = test system: OVCAR-3 ovarian
[25] = test system: KM12 colon
[26] = test system: LOX IMVI melanoma
[27] = test system: EKVX NSCLC
[28] = test system: HCC-2998 colon
[29] = test system: IGROV1 ovarian
[30] = test system: HS 578T breast
[31] = test system: BT-549 breast
[32] = test system: NCI-H522 lung
[33] = test system: MDA-MB-231 breast
[34] = test system: RXF 393 renal
[35] = test system: A498 renal
[36] = test system: MOLT-4 leukemia
[37] = test system: SN12C renal
[38] = test system: SK-MEL-2 melanoma
[39] = test system: NCI/ADR-RES ovarian
[40] = test system: SK-MEL-5 melanoma
[41] = test system: SF-295 CNS
[42] = test system: M14 melanoma
[43] = test system: SF-268 CNS
[44] = test system: CCRF-CEM leukemia
[45] = test system: NCI-H226 lung

Compound `C(#Cc1cnccn1)/C=C\C#Cc1cnccn1` has a GI50 [1] of 12.5 µM, a TGI [1] greater than 100 µM and a GI50 [2] of 16.4 µM. For the same compound, the TGI [2] was 31.7 µM, the GI50 [3] was 3.54 µM and the TGI [3] was greater than 100 µM. The GI50 [4] was 15.4 µM, the TGI [4] was 46.1 µM and the GI50 [5] was 1.65 µM. For the same compound, the TGI [5] was 3.79 µM, the GI50 [6] was 7.72 µM and the TGI [6] was 33.1 µM. For the same compound, the GI50 [7] was 19.4 µM, the TGI [7] was greater than 100 µM and the GI50 [8] was 2.14 µM. It also gave a TGI [8] of 6.92 µM, a GI50 [9] of 19.2 µM and a TGI [9] of 72 µM. For the same compound, the GI50 [10] was 4.18 µM, the TGI [10] was greater than 100 µM and the GI50 [11] was 2.87 µM. It also gave a TGI [11] of 6.88 µM, a GI50 [12] of 14.1 µM and a TGI [12] greater than 100 µM. For the same compound, the GI50 [13] was 8.49 µM, the TGI [13] was 43.8 µM and the GI50 [14] was 15.6 µM. It also gave a TGI [14] of 42.2 µM, a GI50 [15] of 7.43 µM and a TGI [15] of 27.1 µM. For the same compound, the GI50 [16] was 31.1 µM, the TGI [16] was 83.9 µM and the GI50 [17] was 24.1 µM. For the same compound, the TGI [17] was greater than 100 µM, the GI50 [18] was 10.4 µM and the TGI [18] was 22.3 µM. The GI50 [19] was 16 µM, the TGI [19] was 40 µM and the GI50 [20] was 36 µM. The TGI [20] was greater than 100 µM, the GI50 [21] was 2.74 µM and the TGI [21] was 10.6 µM. It also gave a GI50 [22] of 10.7 µM, a TGI [22] of 29 µM and a GI50 [23] of 29.7 µM. It also gave a TGI [23] of 97.3 µM, a GI50 [24] of 7.14 µM and a TGI [24] of 28.4 µM. The GI50 [25] was 3.43 µM, the TGI [25] was 22.4 µM and the GI50 [26] was 1.65 µM. The TGI [26] was 10.5 µM, the GI50 [27] was 3.69 µM and the TGI [27] was 16 µM. It also gave a GI50 [28] of 3.63 µM, a TGI [28] of 11.5 µM and a GI50 [29] of 33.1 µM. It also gave a TGI [29] greater than 100 µM, a GI50 [30] of 31.6 µM and a TGI [30] greater than 100 µM. The GI50 [31] was 12 µM, the TGI [31] was 37.4 µM and the GI50 [32] was 2.4 µM. It also gave a TGI [32] of 18.1 µM, a GI50 [33] of 4.4 µM and a TGI [33] of 20.7 µM. It also gave a GI50 [34] of 13 µM, a TGI [34] of 38.6 µM and a GI50 [35] of 27.8 µM. The TGI [35] was 50.7 µM, the GI50 [36] was 11.4 µM and the TGI [36] was greater than 100 µM. The GI50 [37] was 13.6 µM, the TGI [37] was 29.9 µM and the GI50 [38] was 41.8 µM. For the same compound, the TGI [38] was greater than 100 µM, the GI50 [39] was 7.46 µM and the TGI [39] was 44.3 µM. The GI50 [40] was 19.8 µM, the TGI [40] was 39.9 µM and the GI50 [41] was 15 µM. The TGI [41] was 32.1 µM, the GI50 [42] was 1.72 µM and the TGI [42] was 3.86 µM. It also gave a GI50 [43] of 22.8 µM, a TGI [43] greater than 100 µM and a GI50 [44] of 2.67 µM. For the same compound, the TGI [44] was greater than 100 µM, the GI50 [45] was 23.3 µM and the TGI [45] was 68.1 µM.
